Experimental data as given in PubChem BioAssay (NCI).
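These data come from cells grown in 96-well plates and exposed to compound for 48 hours at five concentrations. GI50 = concentration required for 50% inhibition of growth. TGI: total growth inhibition.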

Experiments:
Assay in all cases: inhibition of tumour cell growth, NCI panel, 48 h
[1] = test system: MALME-3M melanoma
[2] = test system: A549 NSCLC
[3] = test system: BT-549 breast
[4] = test system: UO-31 renal
[5] = test system: PC-3 prostate
[6] = test system: SR leukemia
[7] = test system: A498 renal
[8] = test system: MDA-MB-435
[9] = test system: 786-0 renal
[10] = test system: K-562 leukemia
[11] = test system: T-47D breast
[12] = test system: M14 melanoma
[13] = test system: RPMI-8226 leukemia
[14] = test system: NCI/ADR-RES ovarian
[15] = test system: MOLT-4 leukemia
[16] = test system: OVCAR-4 ovarian
[17] = test system: SNB-19 CNS
[18] = test system: SF-539 CNS
[19] = test system: HCT-15 colon
[20] = test system: OVCAR-3 ovarian
[21] = test system: SN12C renal
[22] = test system: U251 CNS
[23] = test system: NCI-H23 lung
[24] = test system: NCI-H522 lung
[25] = test system: SF-295 CNS
[26] = test system: NCI-H460 lung
[27] = test system: NCI-H226 lung
[28] = test system: SK-MEL-5 melanoma
[29] = test system: CAKI-1 renal
[30] = test system: IGROV1 ovarian
[31] = test system: RXF 393 renal
[32] = test system: HL-60(TB) leukemia
[33] = test system: UACC-257 melanoma
[34] = test system: OVCAR-5 ovarian
[35] = test system: SK-MEL-2 melanoma
[36] = test system: CCRF-CEM leukemia
[37] = test system: SK-OV-3 ovarian
[38] = test system: MDA-MB-231 breast
[39] = test system: HS 578T breast
[40] = test system: OVCAR-8 ovarian
[41] = test system: COLO 205 colon
[42] = test system: TK-10 renal
[43] = test system: HCC-2998 colon
[44] = test system: KM12 colon
[45] = test system: SK-MEL-28 melanoma
[46] = test system: HT29 colon
[47] = test system: HOP-92 NSCLC
[48] = test system: SF-268 CNS
[49] = test system: SW-620 colon
[50] = test system: SNB-75 CNS
[51] = test system: HCT-116 colon
[52] = test system: ACHN renal
[53] = test system: UACC-62 melanoma
[54] = test system: DU-145 prostate
[55] = test system: MCF7 breast
[56] = test system: LOX IMVI melanoma
[57] = test system: EKVX NSCLC

Cc1cc(-c2nc(-c3ccc(OC(F)(F)F)cc3)no2)nn1Cc1ccnc(N2CCN(C3CC3)CC2)c1 showed a GI50 [1] of 4.77 µM, a TGI [1] of over 55.6 µM and a GI50 [2] of 2550 nM. The TGI [2] was over 100 µM, the TGI [3] was over 52.6 µM and the GI50 [4] was 4.4 µM. For the same compound, the TGI [4] was over 100 µM, the GI50 [5] was 3.38 µM and the TGI [5] was over 100 µM. For the same compound, the TGI [6] was over 74 µM, the GI50 [7] was 482 nM and the TGI [7] was over 100 µM. The GI50 [8] was 2340 nM, the TGI [8] was over 59 µM and the GI50 [9] was 13.5 µM. For the same compound, the TGI [9] was over 100 µM, the GI50 [10] was under 10 nM and the TGI [10] was over 100 µM. It also gave a GI50 [11] of 1030 nM, a TGI [11] of over 100 µM and a GI50 [12] of 2690 nM. For the same compound, the TGI [12] was 20.4 µM, the GI50 [13] was 582 nM and the TGI [13] was over 58.3 µM. The GI50 [14] was 726 nM, the TGI [14] was over 100 µM and the GI50 [15] was 3.73 µM. The TGI [15] was 84.8 µM, the GI50 [16] was under 10 nM and the TGI [16] was over 100 µM. For the same compound, the GI50 [17] was over 23.1 µM, the TGI [17] was over 100 µM and the GI50 [18] was over 33 µM. The TGI [18] was over 63.8 µM, the GI50 [19] was 3.84 µM and the TGI [19] was over 62 µM. The GI50 [20] was 10.3 µM, the TGI [20] was over 100 µM and the GI50 [21] was over 34.1 µM. For the same compound, the TGI [21] was over 100 µM, the GI50 [22] was 5.52 µM and the TGI [22] was over 100 µM. The GI50 [23] was under 10 nM, the TGI [23] was over 86.3 µM and the GI50 [24] was 2680 nM. For the same compound, the TGI [24] was 58.1 µM, the GI50 [25] was under 10 nM and the TGI [25] was over 100 µM. The GI50 [26] was 4.94 µM, the TGI [26] was 55.3 µM and the GI50 [27] was 12.2 µM. It also gave a TGI [27] of over 100 µM, a GI50 [28] of under 10 nM and a TGI [28] of 2450 nM. The GI50 [29] was 6.3 µM, the TGI [29] was over 100 µM and the GI50 [30] was over 50 µM. The TGI [30] was over 100 µM, the GI50 [31] was over 27.9 µM and the TGI [31] was over 75.6 µM. For the same compound, the GI50 [32] was 2930 nM, the TGI [32] was over 69.2 µM and the GI50 [33] was 2840 nM. The TGI [33] was over 55.4 µM, the GI50 [34] was over 37.5 µM and the TGI [34] was over 100 µM. The GI50 [35] was over 42.1 µM, the TGI [35] was over 100 µM and the GI50 [36] was 7.09 µM. For the same compound, the TGI [36] was over 100 µM, the GI50 [37] was over 49.6 µM and the TGI [37] was over 100 µM. It also gave a GI50 [38] of 12.6 µM, a TGI [38] of over 78.7 µM and a GI50 [39] of over 38.4 µM. The TGI [39] was over 72.6 µM, the GI50 [40] was over 44.4 µM and the TGI [40] was over 100 µM. The GI50 [41] was 3.27 µM, the TGI [41] was 25.7 µM and the GI50 [42] was 11.2 µM. It also gave a TGI [42] of over 100 µM, a GI50 [43] of 7.05 µM and a TGI [43] of 24.5 µM. The GI50 [44] was 6.88 µM, the TGI [44] was over 91.9 µM and the GI50 [45] was 3.6 µM. For the same compound, the TGI [45] was over 40.2 µM, the GI50 [46] was 5.26 µM and the TGI [46] was over 56.9 µM. It also gave a GI50 [47] of 1550 nM, a TGI [47] of 81.4 µM and a GI50 [48] of over 42.7 µM. The TGI [48] was over 100 µM, the GI50 [49] was over 34.5 µM and the TGI [49] was over 68.7 µM. It also gave a GI50 [50] of over 59.6 µM, a TGI [50] of over 100 µM and a GI50 [51] of under 10 nM. The TGI [51] was over 100 µM, the GI50 [52] was 3.1 µM and the TGI [52] was over 100 µM. The GI50 [53] was 4.23 µM, the TGI [53] was over 49.1 µM and the GI50 [54] was over 59.4 µM. It also gave a TGI [54] of over 100 µM, a TGI [55] of over 42.7 µM and a GI50 [56] of 272 nM. The TGI [56] was over 45.6 µM, the GI50 [57] was under 10 nM and the TGI [57] was over 51.6 µM.
